Test system: P. falciparum 3D7 growth, pLDH absorbance
Assay: blood-stage malaria parasite growth potency – strain 3D7, dose response (AID 2305)

In order of falling IC50:
1. CC(=O)Nc1ccc(OCCCN(Cc2ccccc2C(F)(F)F)c2ccc(C(F)(F)F)c(C#N)c2)c(Cl)c1  1450 nM
2. O=C1COc2ccccc2N1CCN1CCC(NCc2ccc(-c3cccs3)cc2)CC1  1430 nM
3. Cc1cc(N(C)C)nc(Nc2ccc(NS(=O)(=O)c3ccccc3)cc2)n1  1350 nM
4. O=C(Nc1cccc(CN2CCCN(Cc3ccsc3)CC2)c1)c1ccc(-c2ccccc2)cc1  1340 nM
5. Fc1ccc(-c2cncc(Nc3ccncc3)n2)cc1  1320 nM
6. CC(=O)C=C1CC(=O)N(C[C@@H](O)[C@H]2O[C@@H]3OC(C)(C)O[C@@H]3[C@H]2O)c2ccccc2N1  1260 nM
7. CN(C)CC1c2[nH]c3ccccc3c2CCN1C(=O)Nc1ccc(Cl)c(Cl)c1 (stereo not drawn)  1210 nM
8. O=C(Nc1cccc(CN2CCCN(CCc3ccccc3)CC2)c1)c1cc2ccccc2s1  1130 nM
9. O=c1c(Br)c(C(F)(F)F)[nH]c2ccc(Oc3ccccc3)cc12  1100 nM
10. Cc1ccc(O)cc1Nc1ccnc2cc(-c3ccccc3)ccc12  1070 nM
11. Fc1ccc(-c2nc(NCc3cccc(C(F)(F)F)c3)nn2-c2cccc(C(F)(F)F)c2)cc1C(F)(F)F  1050 nM
12. Cc1ccc(F)c(C(=O)Nc2cccc(-c3nn4ccccc4c3-c3ccnc(Nc4cccc(F)c4)n3)c2)c1F  1050 nM
13. CC(C)CCN1CCC(Oc2ccc(NC(=O)c3ccsc3)cc2Cl)CC1  1040 nM
14. COc1cc(NC(=O)c2cc([N+](=O)[O-])ccc2NC(=O)CNC2CCCC(C)C2C)cc(OC)c1 (stereo not drawn)  1040 nM
15. CCCCN1C(=O)C(c2ccccc2)(c2ccccc2)N=C1N  1030 nM
16. CCCCN(C(=O)c1ccccc1Cl)c1nnc(-c2ccccc2C)s1  1020 nM
17. CN1CCC(NCc2cccc(-c3nn(C)c4nc(NC5CCCC5)ncc34)c2)CC1  1020 nM
18. COc1cccc(CN2CCCN(Cc3cccc(NC(=O)c4cc5ccccc5s4)c3)CC2)c1  1010 nM
19. CCCN(CCC)c1nn2c(=O)c(C(=O)N3CCN(Cc4ccccc4)CC3)cnc2s1  1000 nM
20. Cc1cc(C)c(NC(=O)N2CCCN(CCCCCNC(=O)/C=C/c3ccc(Cl)c(Cl)c3)CC2)c(C)c1  970 nM
21. CNS(=O)(=O)Cc1ccc(Nc2nccc(Nc3cccc4c3cnn4C(=O)Nc3ccccc3)n2)cc1  960 nM
22. CCN(CC)CCN(Cc1ccc(-c2ccc(C(F)(F)F)cc2)cc1)C(=O)c1c[nH]c2ccc(Br)cc12  950 nM
23. O=C(/C=C/c1ccc(Cl)c(Cl)c1)NCCCCCCN1CCN(C(=O)Nc2ccc(F)c(Cl)c2)CC1  940 nM
24. COc1cc(C(=O)N2N=C(c3c(-c4ccccc4)c4cc(Br)ccc4[nH]c3=O)CC2c2cccc([N+](=O)[O-])c2)cc(OC)c1OC (stereo not drawn)  940 nM
25. CC(C)(CNC(=O)[C@@H]1CCCN(Cc2ccc(Cl)cc2)C1)c1nc(-c2ccc(Cl)c(O)c2)c(-c2ccncc2)[nH]1  940 nM
26. COc1cc(OC)cc(-c2nnc(Sc3ccc(C#N)c([N+](=O)[O-])c3)n2C)c1  940 nM
27. CCc1ccc(-c2nc3cc(NC(=O)c4cc([N+](=O)[O-])cc([N+](=O)[O-])c4)ccc3o2)cc1  930 nM
28. Fc1cccc2sc(Nc3nc(-c4ccccn4)cs3)nc12  910 nM
29. CCc1c[nH]c2c(N3CCCCS3(=O)=O)cc(C(=O)N[C@@H](Cc3ccccc3)[C@H](O)CNCc3cccc(OC)c3)cc12  910 nM
30. O=C(NC1CCN(CCC[C@]2(c3ccc(Cl)c(Cl)c3)CCCN(C(=O)c3ccccc3)C2)CC1)c1ccc(Cl)cc1  900 nM
31. Fc1ccc(OC2CN(c3nccc(NCc4ccccc4Cl)n3)C2)cc1  900 nM
32. COc1ccc(CC(C)NCC(O)c2cccc(Cl)c2)cc1C (stereo not drawn)  900 nM
33. O=C(/C=C/c1ccc(Cl)c(Cl)c1)N1CCC(CCN2CCc3[nH]c4ccccc4c3C2)CC1  890 nM
34. COc1cc2nc(N3CCC(C(N)=O)CC3)nc(NCc3ccccc3)c2cc1OC  890 nM
35. CCOc1cc(C(=O)NCCc2ccc(Cl)c(Cl)c2)ccc1-c1nc2ccc(Cl)cc2[nH]1  890 nM
36. CCN(CC)c1ccc(NC(=S)NC2CCN(CCCCCNC(=O)/C=C/c3ccc(Cl)c(Cl)c3)CC2)cc1  880 nM
37. CC(C)(CNC(=O)[C@@H]1CCCN(CCOc2ccc(Cl)cc2)C1)c1nc(-c2ccc(Cl)c(O)c2)c(-c2ccncc2)[nH]1  880 nM
38. CS(=O)(=O)c1ccccc1CNC(=O)c1ccc(-c2cccc(-c3nc4ccc(C(F)(F)F)cc4[nH]3)c2)cc1  870 nM
39. Cc1cc(N[C@@H](CC(C)C)C(=O)NC2CCCC2)nc(NCC2CCCCC2)n1  860 nM
40. COc1ccc(CN(C)CCCOc2ccc(NC(=O)C=Cc3ccc(C(C)(C)C)cc3)cc2)cc1OC  860 nM
41. CC(C)CC(NC(=O)c1cc2ccccc2s1)C(=O)N1CCCCCC1c1ccc(C(C)(C)C)cc1 (stereo not drawn)  860 nM
42. Cc1cc(N[C@@H](Cc2ccccc2)C(=O)NCc2cccc(F)c2)nc(NCC2CCCCC2)n1  850 nM
43. CCCC(CNCc1cccc(OCC)c1)CNc1cc(=O)c2ccccc2[nH]1 (stereo not drawn)  850 nM
44. O=C(CCCCCNC(=O)c1ccc(O)c(-c2ccc(Cl)c(Cl)c2)c1)NCCN1CCOCC1  830 nM
45. Nc1ccn([C@@H]2O[C@H](COC(c3ccccc3)(c3ccccc3)c3ccccc3)[C@@H](O)[C@@H]2O)c(=O)n1  830 nM
46. NC(=O)c1cccc(Nc2nccc(Nc3ccc(Oc4ccc5ccccc5c4)cc3)n2)c1  810 nM
47. COc1ccc2ncc(C#N)c(CCN3[C@@H]4CC[C@H]3CC(NCc3ccc5c(n3)NC(=O)CS5)C4)c2c1 (stereo partly drawn)  810 nM
48. O=C(/C=C/c1ccc(Cl)c(Cl)c1)NCCCCCN1CCC(C(=O)Nc2ccc(Cl)cc2)CC1  780 nM
49. COc1ccc2nccc([C@@H](O)CN3CCC(NCc4cn5cc(F)ccc5n4)CC3)c2c1  780 nM
50. O=C(CCCCCNC(=O)c1ccc(O)c(-c2ccc(Cl)c(Cl)c2)c1)NCCc1ccc(Cl)c(Cl)c1  760 nM
51. O=C(Nc1cccc(F)c1)N(Cc1ccc(-c2cccc(CN3CCNCC3)c2)cc1)C1CCN(Cc2ccccc2)CC1  760 nM
52. Cc1noc(C)c1-c1ccc2c(Nc3ccccc3C(C)(C)C)c(C(=O)NCc3ccc(C(F)(F)F)cc3)cnc2c1  760 nM
53. COc1ccc2nccc([C@@H](O)CN3CCC(NCc4ccc(OC)c(NC=O)c4)CC3)c2c1  750 nM
54. O=C(C=Cc1ccc(F)c(Br)c1)N1CCC(CN2CCC(c3c[nH]c4ccccc34)CC2)CC1  750 nM
55. O=C(c1c(-c2[nH]c3ccccc3c2C(=O)C(F)(F)F)[nH]c2ccccc12)C(F)(F)F  750 nM
56. CC(C)(C)C1CCC(C(=O)c2ccc3ccccc3c2O)CC1 (stereo not drawn)  750 nM
57. CN1CCN(CC(=O)Nc2cccc(-c3cccc(-c4nc5ccc(F)cc5[nH]4)c3)c2)CC1  740 nM
58. COc1ccc(-c2nc(NC(=O)COc3ccc(C(C)=O)cc3)sc2C)cc1  710 nM
59. O=C(/C=C/c1ccc(C(F)(F)F)cc1)NCCCCCN1CCC(c2c[nH]c3ccccc23)CC1  680 nM
60. CCNc1cc(C(=O)N[C@@H](Cc2ccoc2)[C@H](O)CNC(C)CCCC(C)C)cc(N2CCCCS2(=O)=O)c1 (stereo partly drawn)  620 nM
61. CC(C)(CC1CCCCC1)NC(=O)[C@H](CC1CCCCC1)Nc1ccc(C#N)c2ccccc12  590 nM
62. CCOC(=O)c1c(CN2CCN(C)CC2)n(Cc2ccccc2)c2cc(Br)c(O)cc12  590 nM
63. CCCc1ccc(Nc2nc(C)cc(N(CC)CCCN3CCCCC3)n2)cc1  540 nM
64. COc1cc(C(=O)NC2CCN(Cc3ccccc3)CC2)ccc1-c1nc2cc(Cl)c(Cl)cc2[nH]1  520 nM
65. O=C(/C=C/c1ccc(Cl)c(Cl)c1)NC1CCC(CN2CCC(Cc3cc4ccccc4[nH]3)CC2)CC1 (stereo not drawn)  510 nM
66. CCC(C)NS(=O)(=O)c1ccc2nc(Nc3ccc(C)cc3)n([C@H](C)C(C)(C)C)c2c1 (stereo partly drawn)  390 nM
67. Cc1cc2c(NC(=O)NC3CCN(CCc4ccccc4Cl)CC3)cccc2cn1  390 nM
68. CC(C)C[C@H](NC(=O)c1ccc(OCCN2CCOCC2)cc1)C(=O)N[C@H](/C=N/N1CCNC1=O)CCc1ccccc1  370 nM
69. CN(C(=O)/C=C/c1c(Cl)cccc1Cl)C1CCN(CCCCCNC(=O)/C=C/c2ccc(Cl)c(Cl)c2)CC1  360 nM
70. CCN(CCCN1CCCCC1)c1cc(C)nc(Nc2ccc(C)cc2C)n1  350 nM
71. COc1ccc2nccc([C@@H](O)CN3CCC(NC(=O)c4ccc(-c5ccccc5)s4)CC3)c2c1  310 nM
72. c1ccc2c(c1)CN(Cc1cc3ccccc3[nH]1)CC1(CCN(Cc3c[nH]c4cnccc34)CC1)O2  310 nM
73. c1cncc(Oc2ccc(Nc3ccnc4cc(-c5cccc(CN6CCOCC6)c5)ccc34)cc2)c1  310 nM
74. N=c1n(CCN2CCCC2)c2ccccc2n1CC(O)c1ccc(Cl)c(Cl)c1 (stereo not drawn)  280 nM
75. CCCc1cc(Cc2cnc(N)nc2N)cc(CCC)c1O  280 nM
76. N#Cc1ccc(-c2cnc3ccc(NCCc4cccnc4)nn23)cc1  260 nM
77. CC(=O)Nc1ccc(C(=O)Nc2cccc(-c3ccc(-c4nc5ccc(C(F)(F)F)cc5[nH]4)cc3)c2)cn1  230 nM
78. Cc1ccc(-c2[nH]n3c(=O)c4c(nc3c2C)CCCC4)cc1  220 nM
79. Cc1[nH]c(C)c(-c2ccc(-c3ccccc3Cl)nc2)c(=O)c1Cl  220 nM
80. Cc1cc(C(=O)Nc2ccc3c(c2)CCN3C2CCN(Cc3cccc4cc[nH]c34)C2)no1 (stereo not drawn)  190 nM
81. CCCCN(Cc1cc(Cl)c(OC)c(OC)c1)c1ccc(C(O)(C(F)(F)F)C(F)(F)F)cc1  190 nM
82. Cc1ccc(C)c(CC(=O)N2CCC(n3c(C)nc4ccc(F)cc43)CC2)c1  190 nM
83. CN(C)S(=O)(=O)n1ncc2c3c(N)nc(N)nc3ccc21  180 nM
84. c1cc(-c2ccc(CNCc3ccc(-c4csnn4)cc3)cc2)cc(-c2nc3ccccc3[nH]2)c1  160 nM
85. CC(=O)Nc1nc(C(=O)Nc2ccc(-c3ccc(-c4nc5ccccc5[nH]4)cc3)cc2)cs1  150 nM
86. O=C(O)CCSc1ncnc2nc[nH]c12  130 nM
87. COc1cccc2cc(C(=O)N[C@@H](CC(C)C)C(=O)N[C@H](/C=N/NC(=O)c3ccccc3)Cc3cnc[nH]3)oc12  130 nM
88. COC(=O)c1cccc(CNCc2cccc(-c3cccc(-c4nc5ccc(F)cc5[nH]4)c3)c2)c1  130 nM
89. COc1cccc(CC(=O)N2CCC(n3c(C)nc4ccc(C)cc43)CC2)c1  110 nM
90. O=C(c1cccc(-c2noc(C(F)(F)F)n2)c1)N1CCN(C(=O)c2ccc3cc[nH]c3c2)CC1  110 nM
91. Cc1cccc2[nH]c(-c3cccc(-c4cccc(NC(=O)Nc5cccc(C#N)c5)c4)c3)nc12  100 nM
92. CCCC1N=C(N)N=C(N)N1c1ccc(CC)cc1 (stereo not drawn)  70 nM
93. CC1(C)N=C(NC(=O)Nc2ccc([N+](=O)[O-])cc2)N=C(N)N1OCc1cccc2ccccc12  60 nM

From PubChem BioAssay AID2305 (GlaxoSmithKline (GSK), 2010)
